Data on two compounds can be found in PMC6149814, “Enhanced Intestinal Permeability of Bufalin by a Novel Bufalin-Peptide-Dendrimer Inclusion through Caco-2 Cell Monolayer” (Molecules : A Journal of Synthetic Chemistry and Natural …, 2017).

Series [1] is described as follows: Cytotoxicity in Caco-2 cells by MTT assay. It is filed as cell-based. The following applies: human. As for the experimental part: The viability of Caco-2 cells were measured after treated for 180 min with Hanks’ balanced salts solution (HBSS) (negative control), paclitaxel (positive control, 25, 50, 75 and 100 μM), BFL (50, 75, 100 and 125 μM) and BPDI (containing BFL 50, 75, 100 and 125 μM), respectively.
The cytotoxicities of free BFL and its formulation, BPDI against Caco-2 cells were tested using the 3-(4,5-dimethylthiazol-2-yl)-2,5-diphenyltetrazolium bromide (MTT) assay. Caco-2 cells at the logarithmic growth were seeded in 96-well plate at the concentration of […] and incubated in an atmosphere of 5% CO2 and 90% relative humidity at 37 °C for three days. After cells attachment, HBSS solution (negative control), paclitaxel (positive control, 25, 50, 75, and 100 μM), BFL (50, 75, 100, and 125 μM), and BPDI (containing BFL 50, 75, 100, and 125 μM) solutions were added into each well, respectively. After cells were treated for three hours, HBSS solution was removed, and cells were rinsed with PBS and incubated with 20 μL of MTT solution (0.5 mg/mL) for 4 h at 37°C and 5% CO2. Then the cells were shaken with 200 μL of DMSO for 10 min, and the absorbance was read on the microplate reader (SPECTROstar Omega, BMG LabTech GmbH, Ortenberg, Germany) at 570 nm. The viability rates were calculated by the equation: % = A/A0 × 100, wherein A was the average absorbance value of treatment group, and A0 was the average absorbance value of negative control group.
In general terms: Formazan colour is commonly taken as a measure of viable cells.

The nature of the next series: in vitro. The following applies: human. As for the experimental part: (§1) Caco-2 cells (4.0 × 10^5 per mL) at the logarithmic growth were seeded into the AP (apical) side of a 24-well Transwell™ plates (Corning Inc., Cambridge, MA, USA). DMEM solution was added into the apical (AP) side (0.5 mL) and basal (BL) side (1.0 mL) of the chamber, respectively. The cell culture was maintained at 37 °C under 90% humidity and 5% CO2. The medium was refreshed every two days in the first week, and then on every day the following week. […] The cell inserts were considered as qualified for trans-membrane transport evaluation only if the resistance reached above […].
(§2) On day 21, the culture medium was removed from the AP and BL sides of the trans-well filters. The Caco-2 monolayers were rinsed twice with pre-warmed HBSS (37 °C) and incubated for 20 min. Then HBSS was removed completely. The test solution of BFL or BPDI (was added to AP (0.4 mL) or BL side (3.2 mL), and then same volume of HBSS was added to the corresponding sides (BL or AP sides). Incubation continued at 37 °C for 180 min. To evaluate the permeability of test compounds across the cell monolayer, solutions from BL (0.4 mL) or AP (3.2 mL) side were collected at different time intervals (60, 120, and 180 min), and replaced with the same volume of HBSS. The collected solutions were lyophilized and stored under −80 °C before HPLC analysis. Experiments for each time point were repeated three times and were performed on the independent chamber.
(§3) Chromatographic analysis was performed using a Alltima TM C18 column (4.6× 250 mm, 5 μm) on an Agilent 1200 liquid chromatography system, equipped with a quaternary solvent delivery system, an auto-sampler and a DAD detector. The isocratic eluting solution consists of A: 0.2% phosphoric acid and B: acetonitrile (54:46, v/v); the detection wavelength and flow rate were set at 226 nm and 1.0 mL/min, respectively. The HPLC analysis will be run for 25 min.
(§4) Apparent permeability values (Papp) for the test compound was calculated according to the equation [22] Papp = (dQ/dt)/(AC0) where Papp is the apparent permeability (cm/s), dQ/dt is the appearance rate of the test compound on the receiver side (μg/s), A represents the surface area of carbon ester membrane (cm^2), and C0 is the initial concentration of compounds on the given sides (μg/L).

The subject of another series is Caco-2 cell monolayer. Kind of series: in vitro. On the procedure: as §1, §2, §3, §4

In the case of `CC(=O)O[C@H]1C(=O)[C@@]2(C)[C@H]([C@H](OC(=O)c3ccccc3)[C@]3(O)C[C@H](OC(=O)[C@H](O)[C@@H](NC(=O)c4ccccc4)c4ccccc4)C(C)=C1C3(C)C)[C@]1(OC(C)=O)CO[C@@H]1C[C@@H]2O` [Paclitaxel, paclitaxel], the viability at 25 µM in series [1] (Caco-2 cells, 25 μM, 180 min, MTT) stood at 65.3 ± 7.2%. For the same compound, the viability is 43.5 ± 5.4% in series [1] (Caco-2 cells, 50 μM (BPDI: containing BFL 50 μM), 180 min, MTT); 34.8 ± 3.2% in series [1] (Caco-2 cells, 75 μM (BPDI: containing BFL 75 μM), 180 min, MTT); 30.5 ± 2.6% in series [1] (Caco-2 cells, 100 μM (BPDI: containing BFL 100 μM), 180 min, MTT).
For the compound `C[C@]12CC[C@H](O)C[C@H]1CC[C@@H]1[C@@H]2CC[C@]2(C)[C@@H](c3ccc(=O)oc3)CC[C@]12O` [BFL, Bufalin], the viability at 180 min, 50 μM in series [1] (Caco-2 cells, 50 μM (BPDI: containing BFL 50 μM), MTT) amounted to 102 ± 7.2%. Besides, the viability at 180 min, 75 μM in series [1] (Caco-2 cells, 75 μM (BPDI: containing BFL 75 μM), MTT) came to 100 ± 8.6%. Moreover, the viability at 180 min, 100 μM in series [1] (Caco-2 cells, 100 μM (BPDI: containing BFL 100 μM), MTT) came out at 99.1 ± 8.5%. Besides, in series [1] (Caco-2 cells, 125 μM (BPDI: containing BFL 125 μM), MTT), the viability at 180 min, 125 μM is 98.9 ± 6.4%. Besides, the viability at 180 min in series [1] (Caco-2 cells, 50, 75, 100 and 125 μM, read-out: viabilities after treatment) is more than 95%. Besides, in the series “in vitro” (Caco-2, Papp AP→BL, 50 μM, 120 min, concentration series (Table 2), n = 3), the Papp A→B (as a rule, the apparent permeability from the apical to the basolateral side of a cell layer) at 120 min, 50 μM turned out to be 1.58 ± 0.32 ×10⁻⁶ cm/s. Further, the Papp A→B at 60 min, 75 μM in the series “in vitro” (Caco-2, Papp AP→BL, 75 μM, 60 min, time course (Table 3), n = 3) amounted to 1.52 ± 0.22 ×10⁻⁶ cm/s. The Papp A→B at 120 min, 75 μM was 1.47 ± 0.08 ×10⁻⁶ cm/s in the series “in vitro” (Caco-2, Papp AP→BL, 75 μM, 120 min, concentration series (Table 2), n = 3) and 1.36 ± 0.08 ×10⁻⁶ cm/s in “in vitro” (Caco-2, Papp AP→BL, 75 μM, 120 min, time course (Table 3), n = 3). The Papp A→B at 180 min, 75 μM in “in vitro” (Caco-2, Papp AP→BL, 75 μM, 180 min, time course (Table 3), n = 3) stood at 1.28 ± 0.02 ×10⁻⁶ cm/s. This compound returned a Papp A→B at 120 min, 100 μM in “in vitro” (Caco-2, Papp AP→BL, 100 μM, 120 min, concentration series (Table 2), n = 3) of 1.46 ± 0.02 ×10⁻⁶ cm/s. The compound also gave a Papp A→B at 120 min, 125 μM in the series “in vitro” (Caco-2, Papp AP→BL, 125 μM, 120 min, concentration series (Table 2), n = 3) of 1.64 ± 0.12 ×10⁻⁶ cm/s. The Papp B→A (in general, the apparent permeability from the basolateral to the apical side of a cell layer) at 120 min, 50 μM in the series “in vitro” (Caco-2, Papp BL→AP, 50 μM, 120 min, concentration series (Table 2), n = 3) stood at 1.37 ± 0.18 ×10⁻⁶ cm/s. This compound returned a Papp B→A at 60 min, 75 μM in the series “in vitro” (Caco-2, Papp BL→AP, 75 μM, 60 min, time course (Table 3), n = 3) of 1.14 ± 0.28 ×10⁻⁶ cm/s. In addition, the Papp B→A at 120 min, 75 μM stood at 1.32 ± 0.14 ×10⁻⁶ cm/s in the series “in vitro” (Caco-2, Papp BL→AP, 75 μM, 120 min, concentration series (Table 2), n = 3) and 1.08 ± 0.17 ×10⁻⁶ cm/s in the series “in vitro” (Caco-2, Papp BL→AP, 75 μM, 120 min, time course (Table 3), n = 3). In “in vitro” (Caco-2, Papp BL→AP, 75 μM, 180 min, time course (Table 3), n = 3), this compound showed a Papp B→A at 180 min, 75 μM of 0.99 ± 0.12 ×10⁻⁶ cm/s. This compound also registered a Papp B→A at 120 min, 100 μM in “in vitro” (Caco-2, Papp BL→AP, 100 μM, 120 min, concentration series (Table 2), n = 3) of 1.29 ± 0.1 ×10⁻⁶ cm/s. Moreover, the Papp B→A at 120 min, 125 μM in the series “in vitro” (Caco-2, Papp BL→AP, 125 μM, 120 min, concentration series (Table 2), n = 3) is 1.35 ± 0.45 ×10⁻⁶ cm/s. Moreover, the Papp (commonly the rate of passage across a membrane or cell layer, normalised by area and donor concentration) in “in vitro” (Caco-2, Papp value (range over concentrations/times, text), summary of Table 2 and Table 3) is 1.46 to 1.62 ×10⁻⁶ cm/s; in the series “in vitro” (Caco-2, apparent permeability coefficient (Papp) values (abstract), BFL in free or BPDI form), more than 1 ×10⁻⁶ cm/s. Further, in the series on Caco-2 cell monolayer (Caco-2 monolayer), the main transport mechanism result is “passive diffusion”. For the same compound, in the series on Caco-2 cell monolayer (due to a Papp value of 1–10 × 10^−6 cm/s), the transport classification entry is reported as “moderate transport”.
